According to patent US11926645B2, “Compounds and methods for treatment of viral infections” (priority 2020, dated 2024):
Where two headings read alike, the source gives them in different places.

Tests used:
[1] = tested on: SARS-CoV-2-Nluc viruses; assay: microbe, parasite or virus in culture; assay type: cell-based; conditions: Severe acute respiratory syndrome coronavirus 2; host cells A549-ACE2; read-out: EC50, WA1/2020-nano luciferase
[2] = in vitro; assay type: cell-based; conditions: human; host cells A549-ACE2; read-out: CC50, A549-ACE2
Procedure: The cytotoxicity of compounds was determined in A549-hACE2 cells in the following manner. Compounds (200 nL) were spotted onto 384-well Grenier plates prior to seeding 5000 A549-hACE2 cells/well in a volume of 40 μL culture medium. The plates were incubated at 37° C. for 48 hours with 5% CO2. On day 2, 40 μL of CellTiter-Glo (Promega) was added and mixed 5 times.

[3] = tested on: RSV-Fluc (Respiratory Syncytial virus strain A2 containing the firefly luciferase reporter); assay: microbe, parasite or virus in culture; assay type: cell-based; conditions: human respiratory syncytial virus, 72 h, NHBE cells, three days
[4] = tested on: SARS-CoV-2 SA/2020 B.1.351; assay: microbe, parasite or virus in culture; assay type: cell-based; conditions: Severe acute respiratory syndrome coronavirus 2, Vero C1008
[5] = tested on: SARS-CoV-2 WA1/2020 A; assay: microbe, parasite or virus in culture; assay type: cell-based; conditions: Severe acute respiratory syndrome coronavirus 2, Vero C1008
[6] = tested on: SARS-CoV-2 BZ/2021 P.1; assay: microbe, parasite or virus in culture; assay type: cell-based; conditions: Severe acute respiratory syndrome coronavirus 2, Vero C1008
[7] = tested on: SARS-CoV-2 CA/2020; assay: microbe, parasite or virus in culture; assay type: cell-based; conditions: Severe acute respiratory syndrome coronavirus 2, Vero C1008
[8] = in vitro; assay type: in vitro ADME, Human; conditions: human, s9, pH 7.4
Procedure: (§1) Duplicate aliquots of test compound or positive control substrate (GS-7340) were added to S9 stock diluted with 100 mM phosphate buffered saline, pH 7.4, to obtain a protein concentration of 1.0 mg/mL. The S9 metabolic reactions were initiated by the addition of the substrates to the S9 reaction mixture to a final concentration of 2 μM. At 0, 10, 20, 30, 60 and 120 min, 25 μL aliquots of the reaction mixture were transferred to plates containing 225 μl of IS/Q solution. After quenching, the plates were centrifuged at 3000×g for 30 minutes, and 150 μL aliquots of each supernatant were diluted with 150 μL water. Aliquots (10 μL) of the diluted supernatant were analyzed on a Thermo Q-Exactive mass spectrometer as described below.
(§2) Quantification of test compounds and controls was performed by analyte/internal standard peak area ratio (PAR) values measured on a Thermo Q-Exactive mass spectrometer coupled to a Dionex UltiMate 3000 HPLC with a Leap Technologies HTC PAL autosampler. The column used was a Thermo Hypersil GOLD (1.9 μm particle size, 2.1×50 mm). Mobile phase A consisted of 0.1% (v/v) formic acid in water. Mobile phase B consisted of 0.1% (v/v) formic acid in acetonitrile. Elution of analytes was achieved by a series of linear gradients of acetonitrile in water containing 0.1% (v/v) formic acid. The mass spectrometer was calibrated on a weekly basis and mass tolerance of 5 ppm was used.

[9] = in vitro; assay type: in vitro ADME; conditions: s9, pH 7.4
Procedure: as §1, with “mM potassium” for “mM”, “phosphate buffer,” for “phosphate buffered saline,”, “of 2.4” for “of 1.0”, “At 2, 12, 25, 45, 65” for “At 0, 10, 20, 30, 60”, “and 90” for “and 120”, “150 μl,” for “150 μL”
as §2

[10] = male cynomolgus monkeys; oral Reference Compound A 5 mg/kg
[11] = male beagle dogs; oral Reference Compound A 5 mg/kg
[12] = female ferrets; oral Reference Compound A 20 mg/kg
[13] = male Balb/c mice; oral Reference Compound A 24 mg/kg
[14] = ferrets, single dose, Reference Compound A i.v. 20 mg/kg
[15] = in vivo; conditions: male, cynomolgus monkey, po, 5 mg/kg
[16] = in vivo; conditions: male, beagle, dog, po, 5 mg/kg
[17] = in vivo; conditions: male, Sprague-Dawley, rat, po; for AUC(0-inf): Reference Compound A AUCinf.; for Cmax: Reference Compound A Cmax
[18] = in vivo; conditions: female, po, 20 mg/kg
[19] = in vivo; conditions: male, Balb/c, mouse, po, 24 mg/kg
[20] = in vitro; conditions: African green monkey
[21] = in vitro; conditions: human
[22] = in vitro; conditions: hamster
[23] = in vitro; conditions: human; remark: listed apart in the source
[24] = in vitro; conditions: human, PrestoBlue
[25] = Plasma stability; conditions: human

## N#C[C@@]1(c2ccc3c(N)ncnn23)O[C@H](CO)[C@@H](O)[C@H]1O [Reference Compound A, (2R,3R,4S,5R)-2-(4-aminopyrrolo[2,1-f][1,2,4]triazin-7-yl)-3,4-dihydroxy-5-(hydroxymethyl)tetrahydrofuran-2-carbonitrile]
[1]
  EC50: 1600 nM
[2]
  CC50: > 50000 nM
[3]
  EC50: 1970 nM
[4]
  EC50: 340 nM
[5]
  EC50: 680 nM
[6]
  EC50: 550 nM
[7]
  EC50: 210 nM
[8]
  half-life at 2 μM: > 11.7 h
[9]
  half-life at 2 μM: 9.87 h
[10]
  Reference Compound A F % (based on compound A mg-eq dose): 3.4%
[11]
  Reference Compound A F % (based on compound A mg-eq dose): 89%
[12]
  Reference Compound A F % (based on Reference Compound A mg-eq dose): 87%
[13]
  Reference Compound A F % (based on compound A mg-eq dose): 33%
[14]
  Reference Compound A AUClast: 81.1 µM·h
  Reference Compound A IV - CL: 14.3 mL/min/kg
  Reference Compound A t1/2: 3.4 h
[14]; read-out: Reference Compound A Cmax
  Cmax: 54.2 µM
[15]
  AUC(0-inf): 1.86 µM·h
  Cmax: 0.536 µM
[16]
  AUC(0-inf): 83.9 µM·h
  Cmax: 27.3 µM
[17]; 5 mg/kg
  AUC(0-inf): 3.07 µM·h
  Cmax: 0.875 µM
[17]; 10 mg/kg
  AUC(0-inf): 2.36 µM·h
  Cmax: 0.578 µM
[18]
  AUC(0-inf): 70.9 µM·h
  Cmax: 11.7 µM
[19]
  AUC(0-inf): 45.1 µM·h
  Cmax: 13.7 µM
[20]
  CC50: > 100000 nM
[21]
  CC50: > 100000 nM
[22]
  CC50: > 100000 nM
[23]
  CC50: > 100000 nM
[24]; CC50, F2 HAE, primary HAE donor F2, 72 hours
  CC50: > 100000 nM
[24]; CC50, F3 HAE, primary HAE donor F3, 72 hours
  CC50: > 100000 nM
[24]; CC50, M2 HAE, primary HAE donor M2, 72 hours
  CC50: > 100000 nM
[24]; CC50, M6 HAE, primary HAE donor M6, 72 hours
  CC50: > 100000 nM
[25]
  half-life at 2 μM: > 25 h
